Measured values taken from patent publication US20260176265A1 (Cancer Research Technology Limited, priority 2022, published 2026).

Experiments:
[1] = target: CtermHisTag-mEGFR Triple Mutant - C797S, L858R, T790M (Homo sapiens, UniProt P00533, C797S/L858R/T790M); experiment: TR-FRET probe displacement assay, EGFR triple mutant; assay type: binding; details: T790M 1.25 nM, probe 100 nM, 30 mins room temperature
Protocol: (§1) Compounds (dissolved to 100 mM in DMSO) were dispensed into black low volume 384 well assay plates (Corning) over a final concentration range of 100000, 30000, 10000, 3000, 1000, 300, 100, 30, 10, and 3 nM using an Echo 550 (Labcyte). Positive control compound and DMSO as a negative control were dispensed into the first and last well, respectively. […]. Plates were read using a PheraStar FS (BMG Labtech) at Ex337 nm Ex490/520 nm. The data were analysed using Graphpad Prism/Dotmatics Studies Software. Assays conducted in technical replicate and repeated as a biological duplicate.

[2] = target: T1, Phospho-EGFR (Tyr1068) in H1975 C797S cells (Homo sapiens, UniProt P00533, C797S/L858R/T790M); experiment: HTRF pEGFR/total EGFR assay in H1975 C797S cells; assay type: cell-based; details: H1975 C797S cells (CRISPR), compound 3 hours, ratio pEGFR/total EGFR
T1 construct: endogenous in cells; host or cells: H1975 C797S (CRISPR-edited in house from ATCC CRL-5908)
Protocol: H1975 C797S cells (ATCC CRL-5908) were genetically engineered by CRISPR editing of EGFR C797S in house and validated by NGS. Cells were plated at 20,000 cells per well in 96 well plates and placed at 37° C. 5% CO2. Once adhered (after 24h) cells were treated with compounds dissolved in DMSO at a final concentration of 0.1% DMSO in media. Compounds were diluted in media then added to cells for 3 hours in duplicate. Compound and media were removed from the cells, then 50 ul of HTRF lysis buffer was added (lysis buffer was diluted from 4× stock to 1× in DI water, with 1% blocking agent also added). Cells were lysed on a plate shaker (2000 rpm) for 30 minutes at room temperature. pEGFR expression was monitored using the Cisbio Phospho-EGFR (Tyr1068) cellular kit (64EG1PEH). Total EGFR expression was monitored using the Cisbio Total EGFR cellular kit (64NG1PEH) as per manufacturer's instructions. Fluorescence emission was read at two different wavelengths (665 nm and 620 nm) on a PheraStar. Results were calculated as ratio of pEGFR/total EGFR and then percentage of 0 uM control.

[3] = target: T2, Phospho-EGFR (Tyr1068) in A431 cells (Homo sapiens, UniProt P00533); experiment: HTRF pEGFR/total EGFR assay in A431 cells (EGF stimulated); assay type: cell-based; details: compound 2.5 hours then 100 ng/ml EGF 30 mins, ratio pEGFR/total EGFR
T2 construct: endogenous in cells; host or cells: A431
Protocol: Cells were plated at 20,000 cells per well in 96 well plates and placed at 37° C. 5% CO2. Once adhered (after 24h) cells were treated with compounds dissolved in DMSO at a final concentration of 0.1% DMSO in media. Compounds were diluted in media then added to cells for 2.5 hours in duplicate, 100 ng/ml EGF (ThermoFisher, PHG0311 was is added to all compound treated cells as well as a control for 30 mins. Compound and media were removed from the cells, then 50ul of HTRF lysis bufferwas added (lysis bufferwas diluted from 4× stock to 1× in DI water, with 1% blocking agent also added). Cells were lysed on a plate shaker (2000 rpm) for 30 minutes at room temperature. pEGFR expression was monitored using the Cisbio Phospho-EGFR (Tyr1068) cellular kit (64EG1PEH). Total EGFR expression was monitored using the Cisbio Total EGFR cellular kit (64NG1PEH) as per manufacturer's instructions. Fluorescence emission was read at two different wavelengths (665 nm and 620 nm) on a PheraStar. Results were calculated as ratio of pEGFR/total EGFR and then percentage of OuM control.

[4] = target: T3, Phospho-EGFR (Tyr1068) in H1975 cells (Homo sapiens, UniProt P00533, L858R/T790M); experiment: HTRF pEGFR/total EGFR assay in H1975 cells; assay type: cell-based; details: compound 3 hours, ratio pEGFR/total EGFR
T3 construct: host or cells: H1975
Protocol: H1975 cells (ATCC CRL-5908) were plated at 20,000 cells per well in 96 well plates and placed at 37° C. 5% CO2. Once adhered (after 24h) cells were treated with compounds dissolved in DMSO at a final concentration of 0.1% DMSO in media. Compounds were diluted in media then added to cells for 3 hours in duplicate. Compound and media were removed from the cells, then 50ul of HTRF lysis buffer is added (lysis buffer was diluted from 4× stock to 1× in DI water, with 1% blocking agent also added). Cells were lysed on a plate shaker (2000 rpm) for 30 minutes at room temperature. pEGFR expression was monitored using the Cisbio Phospho-EGFR (Tyri068) cellular kit (64EG1 PEH). Total EGFR expression was monitored using the Cisbio Total EGFR cellular kit (64NG1 PEH) as per manufacturer's instructions. Fluorescence emission was read at two different wavelengths (665 nm and 620 nm) on a PheraStar. Results were calculated as ratio of pEGFR/total EGFR and then percentage of 0 uM control.

[5] = target: CtermHisTag-mEGFR Wild type (Homo sapiens, UniProt P00533); experiment: TR-FRET probe displacement assay, EGFR wild type; assay type: binding; details: EGFR wild type 1.25 nM, probe 100 nM, 30 mins room temperature
Protocol: as §1

T3 sequence (P00533 25-1210 T790M/L858R): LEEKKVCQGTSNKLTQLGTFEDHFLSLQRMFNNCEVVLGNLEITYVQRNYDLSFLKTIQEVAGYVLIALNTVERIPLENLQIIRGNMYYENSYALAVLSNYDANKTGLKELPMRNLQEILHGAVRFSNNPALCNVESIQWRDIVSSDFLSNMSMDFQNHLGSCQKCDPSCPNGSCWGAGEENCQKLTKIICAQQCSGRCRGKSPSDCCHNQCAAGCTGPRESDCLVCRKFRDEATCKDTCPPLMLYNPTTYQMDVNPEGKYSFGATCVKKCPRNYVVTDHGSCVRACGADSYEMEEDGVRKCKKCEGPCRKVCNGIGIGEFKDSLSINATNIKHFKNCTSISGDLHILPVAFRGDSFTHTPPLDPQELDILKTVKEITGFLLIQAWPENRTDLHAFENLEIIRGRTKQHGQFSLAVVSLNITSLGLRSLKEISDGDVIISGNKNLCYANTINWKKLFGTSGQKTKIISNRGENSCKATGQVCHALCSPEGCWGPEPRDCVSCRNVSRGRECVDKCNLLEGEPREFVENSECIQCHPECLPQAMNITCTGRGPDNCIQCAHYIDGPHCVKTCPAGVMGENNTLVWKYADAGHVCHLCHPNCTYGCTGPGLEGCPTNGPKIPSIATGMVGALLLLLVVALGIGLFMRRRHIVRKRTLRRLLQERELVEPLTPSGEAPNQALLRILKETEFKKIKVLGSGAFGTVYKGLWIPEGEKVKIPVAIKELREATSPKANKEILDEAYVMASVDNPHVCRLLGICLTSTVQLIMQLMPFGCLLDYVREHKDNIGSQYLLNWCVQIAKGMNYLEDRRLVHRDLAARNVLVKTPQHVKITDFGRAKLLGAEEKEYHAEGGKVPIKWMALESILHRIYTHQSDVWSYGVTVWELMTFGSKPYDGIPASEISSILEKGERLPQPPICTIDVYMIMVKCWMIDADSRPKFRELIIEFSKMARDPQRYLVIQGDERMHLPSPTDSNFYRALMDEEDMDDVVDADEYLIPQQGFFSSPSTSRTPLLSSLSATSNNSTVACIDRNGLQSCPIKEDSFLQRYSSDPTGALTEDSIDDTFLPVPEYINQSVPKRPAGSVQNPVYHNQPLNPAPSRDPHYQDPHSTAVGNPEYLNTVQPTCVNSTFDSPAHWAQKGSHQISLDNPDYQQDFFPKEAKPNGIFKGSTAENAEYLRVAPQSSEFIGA
T1 sequence (P00533 25-1210 T790M/C797S/L858R): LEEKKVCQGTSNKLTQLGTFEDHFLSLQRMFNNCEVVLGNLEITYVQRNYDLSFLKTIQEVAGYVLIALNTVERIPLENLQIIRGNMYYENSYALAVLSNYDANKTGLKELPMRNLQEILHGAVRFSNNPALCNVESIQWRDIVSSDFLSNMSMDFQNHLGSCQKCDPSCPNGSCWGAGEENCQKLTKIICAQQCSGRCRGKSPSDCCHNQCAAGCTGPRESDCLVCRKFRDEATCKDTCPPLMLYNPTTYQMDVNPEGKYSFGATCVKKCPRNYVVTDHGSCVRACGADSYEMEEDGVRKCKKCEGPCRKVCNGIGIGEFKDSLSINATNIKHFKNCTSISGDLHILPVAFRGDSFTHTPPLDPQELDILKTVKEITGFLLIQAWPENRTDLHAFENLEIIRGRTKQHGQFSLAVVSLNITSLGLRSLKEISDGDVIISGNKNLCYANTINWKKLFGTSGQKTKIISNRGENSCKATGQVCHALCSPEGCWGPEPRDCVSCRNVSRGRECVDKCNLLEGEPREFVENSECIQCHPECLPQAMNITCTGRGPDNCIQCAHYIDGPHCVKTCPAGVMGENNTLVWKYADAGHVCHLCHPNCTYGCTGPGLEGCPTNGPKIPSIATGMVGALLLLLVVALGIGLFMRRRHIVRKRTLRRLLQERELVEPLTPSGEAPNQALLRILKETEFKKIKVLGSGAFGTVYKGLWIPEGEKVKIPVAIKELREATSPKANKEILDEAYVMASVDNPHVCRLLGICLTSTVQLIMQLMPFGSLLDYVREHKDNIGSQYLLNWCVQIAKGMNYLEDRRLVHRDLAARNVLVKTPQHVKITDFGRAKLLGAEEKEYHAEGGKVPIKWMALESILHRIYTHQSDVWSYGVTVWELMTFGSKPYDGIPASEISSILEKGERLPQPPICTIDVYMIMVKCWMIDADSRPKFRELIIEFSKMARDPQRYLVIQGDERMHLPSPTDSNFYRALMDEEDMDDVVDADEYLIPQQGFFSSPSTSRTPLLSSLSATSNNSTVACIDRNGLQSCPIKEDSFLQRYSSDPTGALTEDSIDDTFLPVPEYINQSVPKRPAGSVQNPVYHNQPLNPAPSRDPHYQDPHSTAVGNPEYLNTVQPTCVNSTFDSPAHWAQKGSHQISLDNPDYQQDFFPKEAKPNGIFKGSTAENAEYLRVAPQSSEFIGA
Chain of CtermHisTag-mEGFR Triple Mutant - C797S, L858R, T790M (P00533 25-1210 T790M/C797S/L858R): as above
T2 sequence (P00533 25-1210): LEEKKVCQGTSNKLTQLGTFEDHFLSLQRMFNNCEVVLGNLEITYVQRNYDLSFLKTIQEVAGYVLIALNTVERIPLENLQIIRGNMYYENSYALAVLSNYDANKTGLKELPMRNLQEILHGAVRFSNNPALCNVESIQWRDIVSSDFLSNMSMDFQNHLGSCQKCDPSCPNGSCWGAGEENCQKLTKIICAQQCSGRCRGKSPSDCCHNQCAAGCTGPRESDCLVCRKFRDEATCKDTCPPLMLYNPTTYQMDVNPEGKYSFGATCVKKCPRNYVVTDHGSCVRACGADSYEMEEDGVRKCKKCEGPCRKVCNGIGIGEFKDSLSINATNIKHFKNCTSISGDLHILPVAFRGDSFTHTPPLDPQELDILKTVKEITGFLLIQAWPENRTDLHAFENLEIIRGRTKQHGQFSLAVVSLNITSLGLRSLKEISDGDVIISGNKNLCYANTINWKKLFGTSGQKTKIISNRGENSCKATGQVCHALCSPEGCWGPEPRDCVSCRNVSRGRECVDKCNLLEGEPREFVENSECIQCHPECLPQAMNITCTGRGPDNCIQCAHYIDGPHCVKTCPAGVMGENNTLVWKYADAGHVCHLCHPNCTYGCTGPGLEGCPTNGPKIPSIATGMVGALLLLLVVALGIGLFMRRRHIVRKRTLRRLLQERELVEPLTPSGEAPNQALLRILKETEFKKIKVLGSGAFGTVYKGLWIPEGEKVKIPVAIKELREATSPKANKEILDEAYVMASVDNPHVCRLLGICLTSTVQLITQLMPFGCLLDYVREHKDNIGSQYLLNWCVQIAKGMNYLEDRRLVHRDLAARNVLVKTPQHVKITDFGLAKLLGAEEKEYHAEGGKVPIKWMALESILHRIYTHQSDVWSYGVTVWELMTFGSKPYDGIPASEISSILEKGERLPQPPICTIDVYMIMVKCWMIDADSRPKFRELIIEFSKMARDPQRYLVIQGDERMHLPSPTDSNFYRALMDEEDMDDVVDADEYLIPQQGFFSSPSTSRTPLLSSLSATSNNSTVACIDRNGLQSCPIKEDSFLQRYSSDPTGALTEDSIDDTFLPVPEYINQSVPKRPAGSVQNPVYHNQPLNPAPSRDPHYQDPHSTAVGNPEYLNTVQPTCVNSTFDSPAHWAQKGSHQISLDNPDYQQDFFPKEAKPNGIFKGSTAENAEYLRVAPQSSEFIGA

Row | SMILES | IC50 [1] [nM] | IC50 [2] [nM] | IC50 [3] [nM] | IC50 [4] [nM] | IC50 [5] [nM]
1 | C#Cc1cc(N2C(=O)OCC2COC)nc2nc(Nc3ccc(N4CCN(C)CC4)cc3)ncc12 (stereo not drawn) [Example 116, 3-(5-Ethynyl-2-{[4-(4-methylpiperazin-1-yl)phenyl]amino}pyrido[2,3-d]pyrimidin-7-yl)-4-(methoxymethyl)-1,3-oxazolidin-2-one] | < 20 | 500 to 1000 | > 3000 | < 500 | 1000 to 10000
2 | C#Cc1cc(NC(=O)CCc2ccccc2)nc2nc(Nc3ccc(N4CCN(C)CC4)cc3)ncc12 [Example 32, N-(5-ethynyl-2-{[4-(4-methylpiperazin-1-yl)phenyl]amino}pyrido[2,3-d]pyrimidin-7-yl)-3-phenylpropanamide] | < 20 | 1000 to 3000 | > 3000 | 1000 to 3000 | 1000 to 10000
3 | C#Cc1cc(N2C(=O)OC[C@H]2C(C)C)nc2nc(Nc3ccc(N4CCN(C)CC4)cc3)ncc12 [Example 69, (4R)-3-(5-ethynyl-2-{[4-(4-methylpiperazin-1-yl)phenyl]amino}pyrido[2,3-d]pyrimidin-7-yl)-4-isopropyl-1,3-oxazolidin-2-one] | < 20 | 500 to 1000 | > 3000 | 500 to 1000 | > 10000
4 | C#Cc1cc(-n2cccc2)nc2nc(Nc3ccc(N4CCN(C)CC4)cc3)ncc12 [Example 36, 5-ethynyl-N-[4-(4-methylpiperazin-1-yl)phenyl]-7-(pyrrol-1-yl)pyrido[2,3-d]pyrimidin-2-amine] | < 20 | > 3000 | > 3000 | 1000 to 3000 | 1000 to 10000
5 | C#Cc1cc(NC(=O)NC2CCCC2)nc2nc(Nc3cccc(N(C)[C@H]4CC[C@@H](CS(C)(=O)=O)CC4)c3)ncc12 [Example 120] | 20 to 100 | < 500 | – | < 500 | < 1000
6 | C#Cc1cc(NC(=O)NC2CCCC2)nc2nc(Nc3ccc(OCCN(C)C)cc3)ncc12 [Example 79, 3-Cyclopentyl-1-[2-((4-[2-(dimethylamino)ethoxyl]phenylamino)-5-ethynyl)pyrido[2,3-d]pyrimidin-7-yl]urea] | < 20 | < 500 | > 3000 | < 500 | < 1000
7 | C#Cc1cc(OC)nc2nc(Nc3ccc(N4CCN(C)CC4)c(Nc4ccccc4)c3)ncc12 [Example 6, N^1-{5-ethynyl-7-methoxypyrido[2,3-d]pyrimidin-2-yl}-4-(4-methylpiperazin-1-yl)-N^3-phenylbenzene-1,3-diamine] | 20 to 100 | > 3000 | > 3000 | 1000 to 3000 | 1000 to 10000
8 | C#Cc1cc(N(C)C(=O)N(C)C2CCCC2)nc2nc(Nc3ccc(N4CCN(C)CC4)cc3)ncc12 [Example 123, 3-Cyclopentyl-1-(5-ethynyl-2-{[4-(4-methylpiperazin-1-yl)phenyl]amino}pyrido[2,3-d]pyrimidin-7-yl)-1,3-dimethylurea] | 1000 to 50000 | > 3000 | > 3000 | > 3000 | > 10000
9 | C#Cc1cc(NC(=O)NCC2COC2)nc2nc(Nc3ccc(N4CCN(C)CC4)cc3)ncc12 [Example 55, 1-(5-ethynyl-2-{[4-(4-methylpiperazin-1-yl)phenyl]amino}pyrido[2,3-d]pyrimidin-7-yl)-3-(oxetan-3-ylmethyl)urea] | < 20 | < 500 | > 3000 | < 500 | < 1000
10 | C#Cc1cc(NC(=O)NC2CCCC2)nc2nc(Nc3ccc(N4CCN(C)CC4)cc3)ncc12 [Example 38, 1-cyclopentyl-3-(5-ethynyl-2-((4-(4-methylpiperazin-1-yl)phenyl)amino)pyrido[2,3-d]pyrimidin-7-yl)urea] | < 20 | < 500 | < 500 | < 500 | < 1000
11 | C#Cc1cc(NC(=O)NC2CCCC2)nc2nc(Nc3cccc(N(C)[C@H]4CC[C@H](CS(C)(=O)=O)CC4)c3)ncc12 [Example 121] | 20 to 100 | < 500 | – | 500 to 1000 | < 1000
12 | C#Cc1c(C)c(OCC2CCCC2)nc2nc(Nc3ccc(N4CCN(C)CC4)cc3)ncc12 [Example 23, 7-(cyclopentylmethoxy)-5-ethynyl-6-methyl-N-[4-(4-methylpiperazin-1-yl)phenyl]pyrido[2,3-d]pyrimidin-2-amine] | 100 to 1000 | > 3000 | > 3000 | > 3000 | > 10000
13 | C#Cc1cc(N2C(=O)NCC23CCCC3)nc2nc(Nc3ccc(S(=O)(=O)N(C)CCN(C)C)cc3)ncc12 [Example 98, N-[2-(dimethylamino)ethyl]-4-[(5-ethynyl-7-{2-oxo-1,3-diazaspiro[4.4]nonan-1-yl}pyrido[2,3-d]pyrimidin-2-yl)amino]-N-methylbenzenesulfonamide] | 20 to 100 | > 3000 | 1000 to 3000 | > 3000 | < 1000
14 | C#Cc1cc(NC(=O)N2Cc3ccccc3C2)nc2nc(Nc3ccc(N4CCN(C)CC4)cc3)ncc12 [Example 58, N-(5-ethynyl-2-{[4-(4-methylpiperazin-1-yl)phenyl]amino}pyrido[2,3-d]pyrimidin-7-yl)-1,3-dihydroisoindole-2-carboxamide] | 100 to 1000 | > 3000 | > 3000 | > 3000 | > 10000
15 | C#Cc1cc(OC2CCCCC2)nc2nc(Nc3ccc(N4CCN(C)CC4)cc3)ncc12 [Example 14, 7-(cyclohexyloxy)-5-ethynyl-N-(4-(4-methylpiperazin-1-yl)phenyl)pyrido[2,3-d]pyrimidin-2-amine] | 100 to 1000 | > 3000 | > 3000 | > 3000 | > 10000
16 | C#Cc1cc(NC(=O)NC2CCCC2)nc2nc(Nc3ccc(N(C)C(=O)CN4CCC4)cc3)ncc12 [Example 78, 2-(Azetidin-1-yl)-N-[4-((7-[(cyclopentylcarbamoyl)amino]-5-ethynyl)pyrido[2,3-d]pyrimidin-2-ylamino)phenyl]-N-methylacetamide] | 100 to 1000 | > 3000 | > 3000 | > 3000 | 1000 to 10000
17 | C#Cc1ccnc2nc(Nc3ccccc3OC)ncc12 [Example 1, 5-ethynyl-N-(2-methoxyphenyl)pyrido[2,3-d]pyrimidin-2-amine] | 100 to 1000 | – | – | – | > 10000
18 | C#Cc1cc(NC(=O)NC2CCCC2)nc2nc(Nc3cccc(N(C)[C@H]4C[C@@H](CS(C)(=O)=O)C4)c3)ncc12 [Example 119] | 20 to 100 | < 500 | – | < 500 | < 1000
